Consider 28 compounds from US7105558B2, “Gastrin and cholecystokinin receptor lignads (iv)” (The James Black Foundation Limited, priority 2000, dated 2006).

Structures are written as SMILES.

The target in the first assay is T1, gastrin (CCK2) receptors (Rattus norvegicus, UniProt P30553).
T1 construct: The stomach was excised and flushed with ca. 1 ml of unbuffered physiological saline solution; from tissue; host or cells: isolated whole stomach of immature rats (33-50 g, ca. 21 days old)
T1 sequence (P30553 1-452): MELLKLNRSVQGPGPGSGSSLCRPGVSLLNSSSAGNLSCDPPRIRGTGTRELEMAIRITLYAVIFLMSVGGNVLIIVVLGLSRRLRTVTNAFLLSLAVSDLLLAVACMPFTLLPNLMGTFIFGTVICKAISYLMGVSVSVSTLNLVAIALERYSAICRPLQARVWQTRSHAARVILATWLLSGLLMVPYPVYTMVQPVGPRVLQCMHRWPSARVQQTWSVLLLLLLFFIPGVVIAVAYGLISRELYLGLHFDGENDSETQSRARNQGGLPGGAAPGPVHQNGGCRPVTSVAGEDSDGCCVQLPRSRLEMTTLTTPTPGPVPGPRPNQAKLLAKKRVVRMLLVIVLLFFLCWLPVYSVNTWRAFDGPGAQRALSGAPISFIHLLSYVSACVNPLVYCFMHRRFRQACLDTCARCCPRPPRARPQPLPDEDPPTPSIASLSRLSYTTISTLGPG
The assay can be described thus: immature rat stomach assay for gastrin (CCK2) antagonist activity (pentagastrin-stimulated acid secretion). Conditions: isolated immature rat stomach, antagonism of pentagastrin dose-response curves, 60 min incubation; tested as N-methyl D-glucamine salts. Here is the method:
The compounds of the examples were tested for gastrin (CCK2) antagonist activity in an immature rat stomach assay. The procedure was as follows:
The oesophagus of immature rats (33-50 g, ca. 21 days old) was ligated at the level of the cardiac sphincter and the duodenal sphincter was cannulated. The stomach was excised and flushed with ca. 1 ml of unbuffered physiological saline solution. The fundus was punctured and cannulated. A further 4-5 ml of unbuffered solution was flushed through the stomach to ensure the preparation was not leaking. The stomach was lowered into a jacketed organ bath containing 40 ml of buffered solution containing 3×10^−8 M 5-methylfurmethide, maintained at 37° and gassed vigorously with 95% O2/5% CO2. The stomach was continuously perfused at a rate of 1 ml min^−1 with unbuffered solution gassed with 100% O2 with the perfusate passing over an internally referenced pH-electrode fixed 12 cm above the stomach.
After 120 min of stabilisation the drugs were added directly to the serosal solution in the organ bath and after a further 60 min cumulative pentagastrin dose-response curves were started. Changes in acid secretion were monitored and the curves analysed according to Black et al, Br. J. Pharmacol., 1985, 86, 581.
In the case of `O=C(O)c1cccc(NC(=O)c2nn(C3CC4CCC3C4)nc2COC23CC4CC(CC(C4)C2)C3)c1` (stereo not drawn) [Example 11, Endo-3-[[5-(Adamantan-1-yloxymethyl)-2-bicyclo[2.2.1]hept-2-yl-2H-[1,2,3]triazole-4-carbonyl]-amino]-benzoic acid], the “Rat stomach pKB” value worked out at 8.37 ± 0.22.

As for `O=C(O)c1cccc(NC(=O)c2nn[nH]c2COC23CC4CC(CC(C4)C2)C3)c1` [Example 24, 3-[[5-(Adamantan-1-yloxymethyl)-1/2/3H-[1,2,3]triazole-4-carbonyl]-amino]-benzoic acid], the “Rat stomach pKB” value is 5.65 ± 0.33.

As for `Nc1ccccc1-n1nc(COC23CC4CC(CC(C4)C2)C3)c(C(=O)Nc2cccc(C(=O)O)c2)n1` [Example 27], the “Rat stomach pKB” value was 6.67 ± 0.17.

The assay is the same for the next values; noted with them: isolated immature rat stomach, antagonism of pentagastrin dose-response curves, 60 min incubation; tested as N-methyl D-glucamine salts; read-out: Rat stomach pKB (converted).
For `O=C(O)c1cccc(NC(=O)c2nn(-c3c(Cl)cccc3Cl)nc2COC23CC4CC(CC(C4)C2)C3)c1` [Example 3, 3-[[5-(Adamantan-1-yloxymethyl)-2-(2,6-dichlorophenyl)-2H-[1,2,3]triazole-4-carbonyl]-amino]-benzoic acid], the Kb is 0.0132 µM.

As to `O=C(O)c1cccc(NC(=O)c2nnn(-c3ccccc3Br)c2COC23CC4CC(CC(C4)C2)C3)c1` [Example 14, 3-[[5-(Adamantan-1-yloxymethyl)-1-(2-bromo-phenyl)-1H-[1,2,3]triazole-4-carbonyl]-amino]-benzoic acid], the Kb is 0.229 µM.

Regarding `Cc1cccc(-n2nc(COC34CC5CC(CC(C5)C3)C4)c(C(=O)Nc3cccc(C(=O)O)c3)n2)c1C` [Example 19, 3-[[5-(Adamantan-1-yloxymethyl)-2-(2,3-dimethyl-phenyl)-2H-[1,2,3]triazole-4-carbonyl]-amino]-benzoic acid], the Kb is 0.0741 µM.

On to `O=C(O)c1cccc(NC(=O)c2nn(-c3ccccc3F)nc2COC23CC4CC(CC(C4)C2)C3)c1` [Example 12, 3-[[5-(Adamantan-1-yloxymethyl)-2-(2-fluoro-phenyl)-2H-[1,2,3]triazole-4-carbonyl]-amino]-benzoic acid], for which the Kb is 0.174 µM.

Consider `Cc1ccc(-n2nc(COC34CC5CC(CC(C5)C3)C4)c(C(=O)Nc3cccc(C(=O)O)c3)n2)c(C)c1` [Example 25, 3-[[5-(Adamantan-1-yloxymethyl)-2-(2,4-dimethyl-phenyl)-2H-[1,2,3]triazole-4-carbonyl]-amino]-benzoic acid], for which the Kb was 0.316 µM.

For `Cc1ccc(C)c(-n2nc(COC34CC5CC(CC(C5)C3)C4)c(C(=O)Nc3cccc(C(=O)O)c3)n2)c1` [Example 22, 3-[[5-(Adamantan-1-yloxymethyl)-2-(2,5-dimethyl-phenyl)-2H-[1,2,3]triazole-4-carbonyl]-amino]-benzoic acid], the Kb was 0.282 µM.

As for `O=C(O)c1cccc(NC(=O)c2nn(C3CCCCC3)nc2COC23CC4CC(CC(C4)C2)C3)c1` [Example 2, 3-[[5-(Adamantan-1-yloxymethyl)-2-cyclohexyl-2H-[1,2,3]triazole-4-carbonyl]-amino]-benzoic acid], the Kb is 0.0479 µM.

In the case of `CC(C)c1ccccc1-n1nc(COC23CC4CC(CC(C4)C2)C3)c(C(=O)Nc2cccc(C(=O)O)c2)n1` [Example 17, 3-[[5-(Adamantan-1-yloxymethyl)-2-(2-isopropyl-phenyl)-2H-[1,2,3]triazole-4-carbonyl]-amino]-benzoic acid], the Kb was 0.263 µM.

With `O=C(O)c1cccc(NC(=O)c2c(COC34CC5CC(CC(C5)C3)C4)nnn2C2CCCCCC2)c1` [Example 32, 3-{[5-(Adamantan-1-yloxymethyl)-3-cycloheptyl-3H-[1,2,3]triazole-4-carbonyl]-amino}-benzoic acid], the Kb is 3.72 µM.

With `CCc1ccccc1-n1nc(COC23CC4CC(CC(C4)C2)C3)c(C(=O)Nc2cccc(C(=O)O)c2)n1` [Example 8, 3-[[5-(Adamantan-1-yloxymethyl)-2-(2-ethyl-phenyl)-2H-[1,2,3]triazole-4-carbonyl]-amino]-benzoic acid], the Kb was 0.024 µM.

With `O=C(O)c1cccc(NC(=O)c2nn(-c3ccccc3[N+](=O)[O-])nc2COC23CC4CC(CC(C4)C2)C3)c1` [Example 26, 3-[[5-(Adamantan-1-yloxymethyl)-2-(2-nitro-phenyl)-2H-[1,2,3]triazole-4-carbonyl]-amino]-benzoic acid], the Kb is 0.38 µM.

Take `O=C(O)c1cccc(NC(=O)c2nn(-c3ccccc3Br)nc2COC23CC4CC(CC(C4)C2)C3)c1` [Example 13, 3-[[5-(Adamantan-1-yloxymethyl)-2-(2-bromo-phenyl)-2H-[1,2,3]triazole-4-carbonyl]-amino]-benzoic acid]: the Kb was 0.0955 µM.

For the compound `O=C(O)Cc1cccc(NC(=O)c2nn(-c3c(Cl)cccc3Cl)nc2COC23CC4CC(CC(C4)C2)C3)c1` [Example 31, (3-{[5-(Adamantan-1-yloxymethyl)-2-(2,6-dichloro-phenyl)-2H-[1,2,3]triazole-4-carbonyl]-amino}-phenyl)acetic acid], the Kb is 2.82 µM.

`CC(C)(C)n1nc(COC23CC4CC(CC(C4)C2)C3)c(C(=O)Nc2cccc(C(=O)O)c2)n1` [Example 9, 3-[[5-(Adamantan-1-yloxymethyl)-2-tert-butyl-2H-[1,2,3]triazole-4-carbonyl]-amino]-benzoic acid]: the Kb is 0.631 µM.

`O=C(O)c1cccc(NC(=O)c2nn(-c3cc(Cl)ccc3Cl)nc2COC23CC4CC(CC(C4)C2)C3)c1` [Example 23, 3-[[5-(Adamantan-1-yloxymethyl)-2-(2,5-dichloro-phenyl)-2H-[1,2,3]triazole-4-carbonyl]-amino]-benzoic acid]: the Kb was 0.151 µM.

For `O=C(O)c1cccc(NC(=O)c2nnn(-c3ccccc3Cl)c2COC23CC4CC(CC(C4)C2)C3)c1` [Example 6, 3-[[5-(Adamantan-1-yloxymethyl)-1-(2-chloro-phenyl)-1H-[1,2,3]triazole-4-carbonyl]-amino]-benzoic acid], the Kb was 0.0933 µM.

`O=C(O)c1cccc(NC(=O)c2nn(-c3c(Cl)cc(Cl)cc3Cl)nc2COC23CC4CC(CC(C4)C2)C3)c1` [Example 4, 3-[[5-(Adamantan-1-yloxymethyl)-2-(2,4,6-trichlorophenyl)-2H-[1,2,3]triazole-4-carbonyl]-amino]-benzoic acid]: the Kb is 0.191 µM.

As for `O=C(O)c1cccc(NC(=O)c2nn(-c3ccccc3)nc2COC23CC4CC(CC(C4)C2)C3)c1` [Example 20, 3-[[5-(Adamantan-1-yloxymethyl)-2-phenyl-2H-[1,2,3]triazole-4-carbonyl]-amino]-benzoic acid], the Kb is 2.09 µM.

On to `O=C(O)c1cccc(NC(=O)c2nn(-c3c(Cl)cccc3Cl)nc2COc2ccccc2)c1` [Example 28, 3-{[2-(2,6-Dichloro-phenyl)-5-phenoxymethyl-2H-[1,2,3]triazole-4-carbonyl]-amino}-benzoic acid], for which the Kb is 1.23 µM.

For the compound `O=C(O)c1cccc(NC(=O)c2nn(-c3cccc4ccccc34)nc2COC23CC4CC(CC(C4)C2)C3)c1` [Example 18, 3-[[5-(Adamantan-1-yloxymethyl)-2-naphthalen-1-yl-2H-[1,2,3]triazole-4-carbonyl]-amino]-benzoic acid], the Kb was 1.51 µM.

Consider `O=C(O)c1cccc(NC(=O)c2nn(-c3ccccc3-c3ccccc3)nc2COC23CC4CC(CC(C4)C2)C3)c1` [Example 21, 3-[[5-(Adamantan-1-yloxymethyl)-2-(biphenyl-2-yl)-2H-[1,2,3]triazole-4-carbonyl]-amino]-benzoic acid], for which the Kb was 0.24 µM.

`O=C(O)c1cccc(NC(=O)c2nn(-c3ccccc3C(F)(F)F)nc2COC23CC4CC(CC(C4)C2)C3)c1` [Example 7, 3-[[5-(Adamantan-1-yloxymethyl)-2-(2-trifluoromethyl-phenyl)-2H-[1,2,3]triazole-4-carbonyl]-amino]-benzoic acid]: the Kb is 0.0676 µM.

Consider `O=C(O)c1cccc(NC(=O)c2nn(-c3c(Cl)cccc3Cl)nc2COC2CCCCCC2)c1` [Example 29, 3-{[5-Cycloheptyloxymethyl-2-(2,6-dichloro-phenyl)-2H-[1,2,3]triazole-4-carbonyl]-amino}-benzoic acid], for which the Kb was 0.0977 µM.

Regarding `O=C(O)c1cccc(NC(=O)c2nn(-c3ccccc3Cl)nc2COC23CC4CC(CC(C4)C2)C3)c1` [Example 5, 3-[[5-(Adamantan-1-yloxymethyl)-2-(2-chloro-phenyl)-2H-[1,2,3]triazole-4-carbonyl]-amino]-benzoic acid], the Kb was 0.0309 µM.

For `O=C(O)c1cccc(NC(=O)c2nn(C3CCCCCC3)nc2COC23CC4CC(CC(C4)C2)C3)c1` [Example 15, 3-[[5-(Adamantan-1-yloxymethyl)-2-cycloheptyl-2H-[1,2,3]triazole-4-carbonyl]-amino]-benzoic acid], the Kb is 0.0135 µM.
